Assay results as given in article PMC10305119, “Analogs of 6-Bromohypaphorine with Increased Agonist Potency for α7 Nicotinic Receptor as Anti-Inflammatory Analgesic Agents” (Marine Drugs, 2023).
Entries after “also recorded” stand apart in the source; their conditions may differ.

Experiments:
[1] = test system: MIA-induced arthritis; test: Monoiodoacetate-induced arthritis model, histological study of the knee joint; type: in vivo, female rats; details: 15th day, scale 0-5, n = 4
Description: After the experiment termination and euthanasia of the experimental animals, biomaterials were taken for histological examination. Soft tissues around the right knee joint were excised as much as possible. Femur, tibia, and fibula were cut across in the middle of the diaphysis closer to the corresponding articular surfaces. The joint was fixed in a 10% solution of neutral formalin for seven days, washed in running water and then decalcified in Trilon B for 7–14 days. After satisfactory decalcification of the bone and cartilage tissue, the joint was cut in the sagittal plane. The diaphysis of the tubular bones was shortened to the border of 2–3 mm from the metaepiphyseal cartilage. In this form, the biomaterial was repeatedly washed in running water, dehydrated in alcohols of ascending concentration, and embedded in paraffin. Paraffin sections 5–7 μm thick were stained with hematoxylin and eosin and examined using conventional light microscopy. During histological analysis, the following morphological signs were assessed: inflammatory infiltration of the synovial membrane (synovitis), synovial hyperplasia, destructive changes in the articular cartilage, and destructive changes in bone tissue (if any). The following scale was used to assess the severity of a particular morphological trait: 0 points—within normal limits, 1—minimal severity, 2—weak, 3—medium (moderate), 4—strong, 5—very strong.
(§1) Four groups of animals were formed: control and three groups with modelling of inflammation by introducing monoiodoacetate (MIA). Three groups of animals were injected with 3 mg MIA in 50 μL of 0.9% sodium chloride through the patellar ligament into the intra-articular space of the right knee using a 29-G needle. Control rats received an equivalent volume of 0.9% sodium chloride.

[2] = test system: MIA-induced arthritis; test: Monoiodoacetate-induced arthritis model, functional tests; type: in vivo, Wistar female rats
Protocol: By the 8th day of the experiment, the maximum inflammation of the knee joint was noted. […] On the 8th and 16th days, the effect of the compound was assessed using a set of functional tests: weight distribution between the healthy and inflamed limbs immediately after the first 6ND injection (Figure 8a) and after eight days of 6ND administration (Figure 8b), muscle strength grasping the hind limbs after the first 6ND injection (Figure 8c) and after eight days of 6ND administration (Figure 8d), mechanical allodynia after the start of 6ND administration and after eight days of 6ND administration (Figure 8e,f, respectively), thermal hypersensitivity 2 h after administration of 6ND ([…]), and measuring the diameter of the knee joint (Figure 8h).
as §1
Assessments of inflammation in vivo and functional tests were conducted on days 8 and 16 after arthritis model induction. Thermal and mechanical hypersensitivity and pain-induced articular disability were tested in this model. Body weight gain and paw oedema were also monitored during the experiment.
The inflamed paw withdrawal or licking latencies to thermal stimulation were measured on a hot plate device (Hot Plate Analgesia Meter, Columbus Instruments) with a set temperature of 53 ± 0.1 °C and a cut-off time of 60 s.
Mechanical hypersensitivity was measured by the electronic von Frey instrument (model BIO-EVF4; Bioseb, Vitrolles, France) used to vertically stimulate the center of the rat hind paw with increasing intensity. Measurements were repeated 3 times and the final value was obtained by averaging the 3 measurements.
Behavioral assessment of movement-caused pain was carried out in a hind limb grip strength test using a Grip Strength Meter (Columbus Instruments, Columbus, OH, USA) consisting of a wire mesh frame connected to the gauge. Rats were restrained and allowed to grasp the wire mesh frame with their hind paws and then were pulled backwards until the grip released. Three measurements were conducted with an interval of 30 s for the averaged grip strength calculation.

[3] = test system: ERK 1/2 phosphorylation; test: ERK1/2 phosphorylation in LPS-stimulated macrophages (flow cytometry); type: cell-based, human; details: compound 1 h, then LPS 3 h; control MFI 194; listed as 6ID
Protocol: To gain an insight into the signaling induced by the tested compounds, ERK1/2 and STAT3 phosphorylation was checked. Macrophages were treated with tested compounds for 1 h, after which they were stimulated with LPS for 3 h.
Peripheral blood mononuclear cells (PBMCs) were separated by Ficoll-Paque PLUS density gradient centrifugation. PBMCs were placed in a sterile Petri dish and incubated at 37 °C for 2 h. Unattached cells were then removed by washing with PBS and substituted with fresh complete RPMI 1640 medium. To generate monocyte-derived macrophages (MDMs), 50 ng/mL GM-CSF was added to the isolated monocytes and cultured for 6 days to differentiate them into non-polarized MDMs.
Figure 5 Effects of the analyzed compounds on signaling pathways in LPS-stimulated macrophages. Cells were treated with PNU 282987, hypaphorine, or 6-iodohypaphorine methyl ester (6ID) for 1 h and then stimulated with LPS for 3 h. Phosphorylated ERK1/2 and STAT3 were quantified by flow cytometry with specific antibodies. […] (c): Representative histogram showing the increase in ERK 1/2 phosphorylation in comparison to control. The numbers in the histograms show the MFI ± SD (n = 3). MFI—geometrical mean fluorescence intensity. One-way ANOVA tests with Tukey post hoc test: * p ˂ 0.05, ** p ˂ 0.01, *** p < 0.001 in comparison with untreated cells. […]

COC(=O)C(Cc1c[nH]c2cc([N+](=O)[O-])ccc12)[N+](C)(C)C (stereo not shown) [Compound 5, methyl ester of 6-nitrohypaphorine]
Destructive Changes in the Distal Epiphyseal Cartilage of the Femur, Max score ([1]; 0.05 mg/kg intramuscular): 3.0 | Destructive Changes in the Distal Epiphyseal Cartilage of the Femur, Me (average) score ([1]; 0.05 mg/kg intramuscular): 3.0 | Destructive Changes in the Distal Epiphyseal Cartilage of the Femur, Min score ([1]; 0.05 mg/kg intramuscular): 3.0 | Destructive Changes in the Proximal Epiphyseal Cartilage of the Tibia, Max score ([1]; 0.05 mg/kg intramuscular): 4.0 | Destructive Changes in the Proximal Epiphyseal Cartilage of the Tibia, Me (average) score ([1]; 0.05 mg/kg intramuscular): 3.5 | Destructive Changes in the Proximal Epiphyseal Cartilage of the Tibia, Min score ([1]; 0.05 mg/kg intramuscular): 3.0 | Inflammatory Infiltration of the Synovium, Max score ([1]; 0.05 mg/kg intramuscular): 4.0 | Inflammatory Infiltration of the Synovium, Me (average) score ([1]; 0.05 mg/kg intramuscular): 3.75 | Inflammatory Infiltration of the Synovium, Min score ([1]; 0.05 mg/kg intramuscular): 3.0 | Synovial Hyperplasia, Max score ([1]; 0.05 mg/kg intramuscular): 3.0 | Synovial Hyperplasia, Min score ([1]; 0.05 mg/kg intramuscular): 2.0 | Synovial Hyperplasia, Me (average) score ([1]; 0.05 mg/kg intramuscular, listed as 6ND): 2.25 | Destructive Changes in the Distal Epiphyseal Cartilage of the Femur, Max score ([1]; 0.26 mg/kg intramuscular): 3.0 | Destructive Changes in the Distal Epiphyseal Cartilage of the Femur, Me (average) score ([1]; 0.26 mg/kg intramuscular): 3.0 | Destructive Changes in the Distal Epiphyseal Cartilage of the Femur, Min score ([1]; 0.26 mg/kg intramuscular): 3.0 | Destructive Changes in the Proximal Epiphyseal Cartilage of the Tibia, Max score ([1]; 0.26 mg/kg intramuscular): 4.0 | Destructive Changes in the Proximal Epiphyseal Cartilage of the Tibia, Me (average) score ([1]; 0.26 mg/kg intramuscular): 3.5 | Destructive Changes in the Proximal Epiphyseal Cartilage of the Tibia, Min score ([1]; 0.26 mg/kg intramuscular): 3.0 | Inflammatory Infiltration of the Synovium, Max score ([1]; 0.26 mg/kg intramuscular): 3.0 | Inflammatory Infiltration of the Synovium, Me (average) score ([1]; 0.26 mg/kg intramuscular): 2.5 | Inflammatory Infiltration of the Synovium, Min score ([1]; 0.26 mg/kg intramuscular): 2.0 | Synovial Hyperplasia, Max score ([1]; 0.26 mg/kg intramuscular): 2.0 | Synovial Hyperplasia, Me (average) score ([1]; 0.26 mg/kg intramuscular): 1.5 | Synovial Hyperplasia, Min score ([1]; 0.26 mg/kg intramuscular): 1.0 | anti-oedemic and analgesic effects in arthritis rat model ([2]; i.p. doses 0.05–0.26 mg/kg): demonstrated anti-oedemic and analgesic effects | grip strength of affected limb ([2]; rats, 0.05 and 0.26 mg/kg, after eight days of administration, listed as 6ND): significantly improved grip strength in MIA-induced arthritis in rats at a dose of 0.05 but not 0.26 mg/kg; also recorded: significantly improved grip strength of affected limb after eight days | body weight distribution between healthy and affected limbs ([2]; rats, 0.05 and 0.26 mg/kg, days 8 and 16, listed as 6ND): No significant influence of 6ND on recovery was detected; also recorded: did not influence body weight distribution | thermal hyperalgesia in hot plate test ([2]; rats, 2 h after administration, listed as 6ND): No significant effects of 6ND in hot plate test; also recorded: did not influence thermal hyperalgesia | mechanical allodynia ([2]; rats, 16 days after MIA, eight days of administration, listed as 6ND): dose-dependent improvement in allodynia test 16 days after MIA injection; also recorded: analgesic (anti-allodynic) effect | oedema of the MIA-injected knee joint (diameter) ([2]; rats, listed as 6ND): Significant effect in dynamics of oedema was detected in rats treated with 0.05 mg/kg 6ND; also recorded: anti-oedemic effect on the MIA-injected joint

COC(=O)[C@@H](Cc1c[nH]c2cc(I)ccc12)[N+](C)(C)C [Compound 1, (D)-6-iodohypaphorine methyl ester]
ERK 1/2 phosphorylation, MFI [3]: 274
